According to patent US6639121B1, “Inducible cancer model to study the molecular basis of host tumor cell interactions in vivo” (Dana-Farber Cancer Institute, Inc., priority 1999, dated 2003):

Legend:
[1] = tested on: Tyr/Tet-RAS INK4a−/− mice; assay: Doxycycline-induced melanoma development in transgenic mice; assay type: in vivo, mouse; settings: doxycycline in the drinking water from weaning
Description: To develop a cancer model in which dominantly acting oncoproteins are somatically regulated in vivo, transgenic mouse lines harboring the reverse tetracycline transactivator^2 under the control of the tyrosinase gene promoter-enhancer elements (designated Tyr-rtTA) and another containing the H-RAS^V12G open reading frame driven by a minimal promoter containing multimerized tet-operons.^2,3 (designated Tet-RAS) were inter-crossed with INK4a+/− mice to generate cohorts of single and double transgenic mice (designated Tyr/Tet-RAS) homozygous null for INK4a. Upon weaning, a subset of single and double transgenic INK4a −/− mice were administered doxycycline in the drinking water^4. In the doxycycline-treated group, 10 of 40 Tyr/Tet-RAS INK4a−/− mice developed melanomas with an average latency of 60 days (FIG. 1A). […] The Tyr/Tet-RAS INK4a−/− melanomas shared all of the macroscopic features of the constitutive Tyr-RAS INK4a−/− melanomas 5, manifesting as amelanotic, invasive and highly vascular tumors—features reminiscent of nodular-type melanoma in humans (for example, see FIGS. 2A&B).
Production of the transgenic mice. The reverse tetracycline transactivator (rtTA) is a 1050 bp EcoRI/BamHI fragment isolated from pUHD172-1neo^2. The Tet promoter contains a XhoI/EcoRI fragment of CMV minimal promoter linked to the tet operator sequences^2. […]

[2] = tested on: Tyr/Tet-RAS INK4a−/− melanoma cell lines; assay: SCID explant tumorigenicity of melanoma cell lines; assay type: in vivo, mouse; settings: SCID mice treated with doxycycline
Description: To this end, we first assessed the impact of doxycycline withdrawal in different Tyr/Tet-RAS INK4a−/− tumor derived cell lines in cell culture. […] The derivative melanoma cell lines remained doxycycline-responsive as shown by their strict doxycycline-dependency for tumorigenic potential in SCID mice. Specifically, subcutaneous injection of purified Tyr/Tet-RAS INK4a−/− melanoma cell lines yielded tumors in SCID mice treated with doxycycline with 100% efficiency, while those mice not receiving doxycycline remained tumor-free after many months of observation (FIG. 3A). […] On the other hand, the data is also consistent with the possibility that tumor regression following doxycycline withdrawal may reflect a continued requirement for RAS in promoting and sustaining non-cell-autonomous tumor-host interactions that are essential for tumor growth and maintenance.
Primary tumors, derivative cell lines and SCID explant tumors. Transgenic mice were fed doxycycline drinking water (2 mg/ml sucrose water) and observed for spontaneous tumor development. Primary tumors were adapted to culture by mechanical mincing with sterilized razor blades and brief trypsinization and maintained on RPMI media containing 10% serum and supplemented with doxycycline (2 μg/ml media)^4. […]

`C[C@H]1c2cccc(O)c2C(=O)C2=C(O)[C@]3(O)C(=O)C(C(N)=O)=C(O)[C@@H](N(C)C)[C@@H]3[C@@H](O)[C@@H]21` [doxycycline] was tested, and the “average latency of melanoma development” value [1] was 60 days and the “efficiency of tumor formation after subcutaneous injection” value [2] was 100%.
